As usually defined, the IC50 is the concentration at which inhibition is half-maximal. The inhibition is how much of the control response was suppressed.

In one assay the test system is IL-12 p35 mRNA. The experiment in a line: Northern blot of IL-12 p35 mRNA in IFN-γ/SAC-stimulated human PBMC. The assay is classed as cell-based. To be noted: hPBMC. The method, then:
Northern blot analysis was performed to examine the mRNA levels of IL-12 p35 and p40. Human PBMC and the human monocyte cell line THP-1 cells were stimulated with IFN-γ/SAC in the presence or absence of Compound 1. Human PBMC were isolated by centrifugation using Ficoll-Paque (Pharmacia Biotech, Uppsala, Sweden) and prepared in RPMI medium supplemented with 10% fetal calf serum (FCS), 100 U/ml penicillin, and 100 μg/ml streptomycin, in a 96-well plate with 5×10^5 cells/well. The cells were then primed with IFN-γ (100 U/ml) and followed by 0.01% SAC or 1 μg/ml LPS, in the presence of different concentrations of Compound 2 or other compounds. The test compounds were prepared in DMSO and the final DMSO concentration was adjusted to 0.25% in all cultures, including the compound-free control. Cell-free supernatants were taken 18 h later for the measurement of cytokines. The THP-1 cells were obtained from American Type Culture Collection (Manassas, Va.) and were cultured in RPMI 1640 (ATCC, Manassas, Va.), supplemented with 10% FCS (ATCC, Manassas, Va.), and 1% penicillin/Streptomycin (Gibco-BRL, New York, N.Y.). Total RNA was isolated and subjected to Northern blot analysis using IL-12 p35 and p40 cDNA probes. We first examined the kinetics of mRNA accumulation in cultures of hPBMC and THP-1 cells primed with IFN-γ followed by SAC stimulation in the presence or absence of 1 μM Compound 1.
We conducted a dose-response study of the inhibitory effects of Compound 1 on IL-12 mRNA expression in IFN-γ/SAC-stimulated hPBMC. Because both IL-12 p35 and p40 mRNA levels were maximal at 6 h after the addition of SAC, this time point was selected for the dose-response analysis.

The test system of the next assay is IL-12 p70. The experiment in a line: Inhibition of production of IL-12 p70 protein. The assay is classed as cell-based, human. To be noted: Homo sapiens; 1 μM Compound 1; 10 mM ASA; read-out: percent inhibition of production of IL-12 p70 protein. The method, then: Cells were co-transfected with the vector pCMV (BD Biosciences Clontech) in which the constitutively active CMV promoter directs β-galactosidase expression for the monitoring of transfection efficiency. Luciferase and β-galactosidase activity were determined in cell extracts prepared according to the Luciferase assay system (Promega) and Luminescent n-gal Detection system (BD Biosciences Clontech). Luciferase activity was then normalized using the β-galactosidase value. […] ELISA was performed by the following method. Human IL-12 p70 (heterodimer) was assayed using ELI-PAIR kit from Cell Sciences (Norwood, Mass.), according to the manufacturer's instructions. Human IL-12 p40 was assayed using ELISA kit from Cell Sciences (Norwood, Mass.) according to the manufacturer's instructions.
The extracts obtained from this process were used in gel-shift assays using oligonucleotides containing the NFκB target sequence corresponding to the region −121 to −102 from the transcription initiation site of IL-12 p40 or a mutated NFκB binding site. […] This interaction was specific as it was competed away by an excess of unlabeled probe, but not by a mutated oligonucleotide in which two base-pairs were substituted. […] This is expected since a compound that potently blocks NFkB have a far broader cytokine inhibitory profile than Compound 1/Compound 2.

Another assay deals with IκBα. The experiment in a line: Inducible degradation of IκBα, Western blot and FACS analysis. To be noted: THP-1 and RAW267.4 cells, IFN-γ/LPS or IFN-γ/SAC, 500 nM, 30 min and 2 hrs. The format is cell-based, human. The method, then:
IκB degradation is one of the steps in the signaling pathway of NFκB dependent genes. The activity of Compound 2 in inducible degradation of IκBα □ and IκBβ was investigated in THP-1 cells using Western blot and FACS analysis. […] Similar results were observed from the Compound 2 pre-treatment samples in which Compound 2 was added […] before stimulation.
A general note: Immunoblotting shows a protein as a band on a membrane.

A further assay concerns c-Rel. The experiment in a line: ELISA based transcriptional factor-DNA binding activity assay, THP-1 nuclear extracts, c-Rel. The format is cell-based, human. The settings on record: IFN-γ/LPS, 500 nm, 3 hrs. The method, then: Nuclear extracts were prepared from IFN-γ-primed THP-1 cells that had been treated with or without SAC and incubated in the presence or absence of 1 μM Compound 1 or 10 mM ASA. Isolation of nuclear extracts was accomplished by first suspending THP-1 cells in 20 volumes of buffer A containing 10 mM KCl, 10 mM HEPES (pH 7.9), 1 mM MgCl2, 1 mM dithiothreitol (DTT), 0.1% Nonidet p40 (NP-40), and 0.5 mM phenylmethylsulfonyl fluoride (PMSF) and then homogenizing and centrifuging at 10,000 rpm at 4° C. for 5 min. Nuclear pellets were then suspended in buffer C containing 400 mM NaCl, 20 mM HEPES pH 7.9), 15 mM MgCl2, 0.2 mM EDTA, 1 mM DTT, 25% glycerol, 1 mM PMSF, and 10 μg of leupeptin, 20 μg of pepstatin, and 10 μg of antipain per ml, incubated for 30 min at 4° C., and centrifuge at 14,000 rpm for […]. The supernatants were dialyzed against buffer D containing 100 mM NaCl, 20 mM HEPES (pH 7.9), 20% glycerol, 1 mM PMSF, and 1 mM DTT.
To understand the action of Compound 2 in NF-κB binding, several NF-κB family members, p50, c-Rel and p65 were investigated using an ELISA based transcriptional factor-DNA binding activity assay system. […]
For orientation: In an ELISA, binding on a coated surface is turned into a signal by an enzyme label.

Take `C(=NNc1nc(OCCc2ccccn2)nc(N2CCOCC2)n1)c1c[nH]c2ccccc12` [Compound 1, N-(1H-indol-3-ylmethylene)-N′-[4-morpholin-4-yl-6-(2-pyridin-2-yl-ethoxy)-[1,3,5]triazin-2-yl]-hydrazine]: the IC50 with IL-12 p35 mRNA (Homo sapiens, PBMC, 6 h after SAC, read-out: IC50, IL-12 p35 mRNA accumulation) is < 1 nM. Also, in the assay with IL-12 p35 mRNA (1 μM Compound 1, all sampling times), the “expression of p35 mRNA” value is listed as “completely inhibited”. In addition, the “induction of IL-12 p35 mRNA accumulation” value with IL-12 p35 mRNA (6 h after SAC, 3 nM) is “completely reversed”. For the same compound, the inhibition at 1 µM with IL-12 p70 was 97%.

Regarding `Cc1cccc(C=NNc2cc(N3CCOCC3)nc(OCCc3ccccn3)n2)c1` [Compound 2, N-(3-methyl-benzylidene)-N′-[6-morpholin-4-yl-2-(2-pyridin-2-yl-ethoxy)-pyrimidin-4-yl]-hydrazine], the “amount of IκBα in the cytoplasm, treated vs untreated” value with IκBα is given as “no significant difference”. For the same compound, in the assay with c-Rel, the “binding activity of c-Rel” value was “significantly decreased”.

These data come from patent US9910031B2, “Compositions and methods for modulating c-Rel-dependent cytokine production” (Synta Pharmaceuticals Corporation, priority 2003, dated 2018).
